The source of these data is patent EP1285918A1, “C7 Ester substituted taxanes as antitumor agents” (Florida State University Research Foundation, Inc., priority 2001, dated 2003).

Where two headings read alike, the source gives them in different places. Bounds are passed on as bounds.

Data set [1] has as its system blood cell populations. The data set can be described thus: Effect of oral treatment on blood cell populations, body weight and tumor weight in MX-1 bearing mice (Example 25, Table 23). It counts as in vivo, nu/nu mice. Particulars: 160 mg/kg single oral bolus. As to the method: (§1) The study was terminated on Day 63.
In addition to survival and tumor regression responses, the effect of treatment on blood cell populations was assessed. The major effect of these antitumor compounds on blood cell populations was a marked reduction in the neutrophil cell number. As well, monocyte depletion correlated fairly well with neutrophil reduction for each antitumor compound. […] There was a correlation between antitumor activity and reduced neutrophil count. In general, toxicity (as determined by neutrophil depletion) and weight loss correlated with efficacy. Importantly, the toxicities observed with the very efficacious antitumor compounds were manageable and reversible; neutrophil count and body weight rebounded from their low points in just a few days. Table 23 summarizes the weight reduction, neutrophil and monocyte measurements on Day 4, with tumor weight reduction calculated at Day 18: Table 23

The subject of data set [2] is MX-1 Human Breast Carcinoma Xenograft. The data set can be described thus: In vivo evaluation of oral administration of antitumor compounds against MX-1 human breast carcinoma xenograft (Example 25).
Description: This study investigated the efficacy of various antitumor compounds when administered orally against the MX-1 human breast carcinoma xenograft.
as §1
On the technique in general: Xenograft models place foreign cells or tissue in a host animal.

Data set [3] deals with HCT116. The data set can be described thus: In Vitro cytotoxicity measured by the cell colony formation assay. Type of data set: cell-based. Particulars: Homo sapiens, HCT-116; 72 h drug incubation, colonies counted after 7 days; concentration producing 50% inhibition of colony formation; read-out: IN VITRO ID 50 (nm) HCT116. As for the experimental part:
In Vitro cytotoxicity measured by the cell colony formation assay
Four hundred cells (HCT116) were plated in 60 mm Petri dishes containing 2.7 mL of medium (modified McCoy's 5a medium containing 10% fetal bovine serum and 100 units/mL penicillin and […] streptomycin). The cells were incubated in a CO2 incubator at 37 °C for 5 h for attachment to the bottom of Petri dishes. The compounds identified in Example 2 were made up fresh in medium at ten times the final concentration, and then 0.3 mL of this stock solution was added to the 2.7 mL of medium in the dish. The cells were then incubated with drugs for 72 h at 37 ° C. At the end of incubation the drug-containing media were decanted, the dishes were rinsed with 4 mL of Hank's Balance Salt Solution (HBSS), 5 mL of fresh medium was added, and the dishes were returned to the incubator for colony formation. The cell colonies were counted using a colony counter after incubation for 7 days. Cell survival was calculated and the values of ID50 (the drug concentration producing 50% inhibition of colony formation) were determined for each tested compound.

In data set [4] the test system is Panc-1 Human Pancreatic Carcinoma Xenografts. The following applies: i.v. qd x 1 at estimated MTD; 6 mice/group; study end Day 63. As to the method: (§2) Other antitumor compounds were similarly formulated. […] The dosing volume was 0.3 mL per 20 g mouse.
Female NCr-nude mice (6-8 weeks of age, implanted subcutaneously with 1 mm^3 Panc-1 pancreatic carcinoma fragments in the flank) were sorted into treatment groups of six mice each. […] Dosing was initiated on Day 1. The antitumor compounds were given i.v. at an estimated maximum tolerated dose (MTD) appropriate for each agent on a qd x 1 schedule (single administration of compound). […] Taxotere was given i.v. at a dose of 70 mg/kg on a qd x 1 schedule. The vehicle was given i.v. to control mice in Group 1 in each test on Day 1 (qd x 1) schedule. Treatment groups are detailed in Table 12. The study was terminated on Day 63.
The mean days of survival is the number of days after which a neoplasm reached a size of 1.5 g and the animal was euthanized. A complete response is obtained if the tumor is not palpable at the end of the study. A partial response is obtained if the tumor shrinks to a size smaller than its size on Day 1 of the study.

Data set [5] concerns DU 145 Human Prostate Carcinoma Xenografts. The following applies: DU145, i.v. qd x 1 (mg/kg: Taxol 24, 1351 107.6, 1393 72.6, 1401 107.6, 1418 107.6, 1424 195.1). As for the experimental part:
(§3) Other antitumor compounds were similarly formulated. […] The dosing volume was 0.3 ml per 20 g mouse.
Male NCr-nude mice (implanted subcutaneously with 1 mm^3 DU145 prostate carcinoma fragments in the flank) were sorted into treatment groups of five mice each. […] Dosing was initiated on Day 1. The antitumor compounds were given i.v. at an estimated maximum tolerated dose (MTD) appropriate for each agent on a qd x 1 schedule (single administration of compound). […] The vehicle was administered i.v. to control mice in Group 1 on the qd x 1 schedule. The study was terminated on Day 91. Treatment groups are detailed in Table 5.
The mean days of survival is the number of days after which a neoplasm reached a size of 1.5 g and the animal was euthanized. A complete response is obtained if the tumor is not palpable at the end of the study. A partial response is obtained if the tumor shrinks to a size smaller than its size on Day 1 of the study. […]

The subject of data set [6] is A375 Human Melanoma Xenografts. Particulars: A375, i.v. qd x 1 (mg/kg: Taxol 24, 1351 107.6, 1393 72.6, 1401 107.6, 1418 107.6, 1424 195.1, Taxotere 70). As to the method: as §3
Female NCr-nude mice (implanted subcutaneously with 1 mm^3 A375 melanoma in the flank) were sorted into treatment groups of six mice each, except for the Taxotere group having seven mice each. […] Dosing was initiated on Day 1. The antitumor compounds were given i.v. at an estimated maximum tolerated dose (MTD) appropriate for each agent on a qd x 1 schedule (single administration of compound). […] Taxotere was given i.v. on a qd x 1 schedule at a dose of 70 mg/kg. The vehicle was administered i.v. to control mice in Group 1 on the qd x 1 schedule. Treatment groups are detailed in Table 9. The study was terminated on Day 60.
The results are summarized in Table 10 and include mean days of survival (MDS), number of toxic deaths, number of survivors, number of complete or partial responses, and number with stable disease. The mean days of survival is the number of days after which a tumor reached a size of 2.0 g and the animal was euthanized. A complete response is obtained if the tumor is not palpable at the end of the study. A partial response is obtained if the tumor shrinks to a size smaller than its size on Day 1 of the study. […]

Data set [7] has as its system VM46 Human Colon Carcinoma Xenografts. Particulars: 6 mice/group. As for the experimental part:
as §2
Female NCr-nude mice (6-8 weeks of age, implanted subcutaneously with 1 mm^3 VM46 colon carcinoma fragments in the flank) were sorted into treatment groups of six mice each. […] Dosing was initiated on Day 1. The antitumor compounds were given i.v. at an estimated maximum tolerated dose (MTD) appropriate for each agent on a qd x 1 schedule (single administration of compound). […] Taxotere was given i.v. at a dose of 70 mg/kg on a qd x 1 schedule. The vehicle was given i.v. to control mice in Group 1 in each test on Day 1 (qd x 1) schedule. Treatment groups are detailed in Table 13. The VM46 study ended on Day 64.
The results are summarized in table 14 and include mean days of survival (MDS), number of toxic deaths, number of survivors, number of complete or partial responses, and number with stable disease. The mean days of survival is the number of days after which a neoplasm reached a size of 1.5 g and the animal was euthanized. A complete response is obtained if the tumor is not palpable at the end of the study. A partial response is obtained if the tumor shrinks to a size smaller than its size on Day 1 of the study. […]

Where [8] appears, read: 160 mg/kg single oral bolus, 6 mice/group, study end Day 63.
The mark [9] stands for this setting: tumor score 1 to 10, group mean.
Where [10] appears, read: 195.1 mg/kg i.v. qd x 1, study end Day 64.

As for `CCC(=O)OC1CC2OCC2(OC(C)=O)C2C(OC(=O)c3ccccc3)C3(O)CC(OC(=O)C(O)C(NC(=O)c4ccccc4)c4ccco4)C(C)=C(C(O)C(=O)C12C)C3(C)C` (centres unmarked) [Compound 4017], in data set [1] (Day 4), the “Monocytes (K/µL)” value is on record as 0.073 K/µL and the “Neutrophils (K/µL)” value is given as 0.228 K/µL. Further, the “% Reduction” value in data set [1] (reduction of monocytes, Day 4) amounted to 24.0%. Further, the “% Reduction” value in data set [1] (reduction of neutrophils, Day 4) was 75.0%. In addition, the “% Reduction” value in data set [1] (reduction of tumor weight at Day 18) is recorded as 70.5%. In data set [1] (tumor weight at Day 18), the “Weight” value is 256.5 mg. The “Maximum Weight Loss (Day)” value in data set [2] (160 mg/kg single oral bolus, 6 mice/group, on Day 5) is on record as -4.3% (5). In addition, in data set [2] (setting [8]), the “Partial Response” value is 0, the “Stable Disease” value stood at 0 and the “Toxic Deaths” value is 1. Further, the “Mean Day of Survival (n)” value in data set [2] (160 mg/kg single oral bolus, 6 mice/group, study end Day 63, days until tumor reached 1.5 g) is given as 39.4 ± 4.6 (5) days. In addition, the “survival compared to vehicle control mice” value in data set [2] (MX-1, single oral bolus, doses of Table 22, Day 63) is “significant survival extensions”. For the same compound, the “Complete Response” value in data set [2] (po, 160 mg/kg, 1512 h) was determined as 0. For the same compound, the IC50 in data set [3] was under 10 nM.

For the compound `CCC(=O)O[C@H]1C[C@H]2OC[C@@]2(OC(C)=O)[C@H]2[C@H](OC(=O)c3ccccc3)[C@]3(O)C[C@H](OC(=O)[C@H](O)[C@@H](NC(=O)OC(C)(C)C)c4ccsc4)C(C)=C([C@@H](O)C(=O)[C@]12C)C3(C)C` [Compound 1424], the “Complete Response” value is given as 0 in data set [4]; 0 in data set [5] (5 mice/group, Day 91); 0 in data set [6] (Day 60); 0 in data set [7] (setting [10]). Also, the “Mean Score” value in data set [4] is reported as 0 ± 0; in data set [5] (setting [9]), 3.6 ± 1.1; in data set [6] (setting [9]), 1 ± 0.6; in data set [7] (setting [10]) it was 0.8 ± 0.4. In addition, the “Partial Response” value is on record as 0 in data set [4]; 1 in data set [5] (5 mice/group, Day 91); 0 in data set [6] (Day 60); 0 in data set [7] (setting [10]). The “Stable Disease” value is recorded as 0 in data set [4]; 0 in data set [5] (5 mice/group, Day 91); 0 in data set [6] (Day 60); 0 in data set [7] (setting [10]). The Survivors in data set [4] is reported as 0; in data set [5] (5 mice/group, Day 91), 1; in data set [6] (Day 60), 0; in data set [7] (setting [10]), 0. Moreover, the “Toxic Deaths” value was 6 in data set [4]; 0 in data set [5] (5 mice/group, Day 91); 3 in data set [7] (setting [10]); “three” in data set [7] (VM46, i.v. qd x 1 at estimated MTD). In addition, the “MDS (n)” value is 76.0 ± 5.4 (4) days in data set [5] (5 mice/group, 1.5 g cut-off, Day 91); 30.7 ± 1.1 (2) days in data set [6] (2.0 g cut-off, Day 60); 45.4 ± 8.1 (3) days in data set [7] (195.1 mg/kg i.v. qd x 1, study end Day 64, days until tumor reached 1.5 g).

In the case of `CCCC(=O)OC1CC2OCC2(OC(C)=O)C2C(OC(=O)c3ccccc3)C3(O)CC(OC(=O)C(O)C(NC(=O)OCC(C)C)c4ccsc4)C(C)=C(C(O)C(=O)C12C)C3(C)C` (centres unmarked) [Compound 4600], in data set [3], the IC50 is under 10 nM.

For the compound `CCCC(=O)OC1CC2OCC2(OC(C)=O)C2C(OC(=O)c3ccccc3)C3(O)CC(OC(=O)C(O)C(NC(=O)OC(C)(C)C)c4ccoc4)C(C)=C(C(O)C(=O)C12C)C3(C)C` (centres unmarked) [Compound 4394], the IC50 in data set [3] is under 1 nM.

Turning to `CCCC(=O)OC1CC2OCC2(OC(C)=O)C2C(OC(=O)c3ccccc3)C3(O)CC(OC(=O)C(O)C(C=C(C)C)NC(=O)OC(C)(C)C)C(C)=C(C(O)C(=O)C12C)C3(C)C` (centres unmarked) [Compound 4406], the IC50 in data set [3] was under 1 nM.

Turning to `CCC(=O)O[C@H]1C[C@H]2OC[C@@]2(OC(C)=O)[C@H]2[C@H](OC(=O)c3ccccc3)[C@]3(O)C[C@H](OC(=O)[C@H](O)[C@@H](NC(=O)c4ccco4)c4ccco4)C(C)=C([C@@H](O)C(=O)[C@]12C)C3(C)C` [Compound 3629], in data set [3], the IC50 is under 1 nM.

Turning to `CCCC(=O)OC1CC2OCC2(OC(C)=O)C2C(OC(=O)c3ccccc3)C3(O)CC(OC(=O)C(O)C(NC(=O)OCC(C)C)c4cccs4)C(C)=C(C(O)C(=O)C12C)C3(C)C` (centres unmarked) [Compound 4290], the IC50 in data set [3] is under 10 nM.

Turning to `CCC(=O)O[C@H]1C[C@H]2OC[C@@]2(OC(C)=O)[C@H]2[C@H](OC(=O)c3ccccc3)[C@]3(O)C[C@H](OC(=O)[C@H](O)[C@@H](NC(=O)OC(C)C)c4cccs4)C(C)=C([C@@H](O)C(=O)[C@]12C)C3(C)C` [Compound 3082], the IC50 in data set [3] was under 1 nM.
